# Assay results published in ChEMBL document CHEMBL3576773, “Studies on the ATP Binding Site of Fyn Kinase for the Identification of New Inhibitors and Their Evaluation as Potential Agents against Tauopathies and Tumors” (J Med Chem, 2015).
# Tests used:
# Liver microsome [1] = assay: Drug formation in human liver microsomes treated with 1-(2-Chloro-2-phenylethyl)-3-(4-methyoxyphenyl)-1H-pyrazolo-[3,4-d]pyrimidin-4-amine measured after 1 hr by LC-UV-MS analysis; format: ADME
# Liver microsome [2] = assay: Drug formation in human liver microsomes treated with 1-(2-Chloro-2-phenylethyl)-3-phenyl-1H-pyrazolo[3,4-d]-pyrimidin-4-amine hydrocloride measured after 1 hr by LC-UV-MS analysis; format: ADME
# Liver microsome [3] = assay: Drug formation in human liver microsomes treated with 1-(2-Chloro-2-phenylethyl)-3-(4-methylphenyl)-1H-pyrazolo[3,4-d]pyrimidin-4-amine measured after 1 hr by LC-UV-MS analysis; format: ADME
# Liver microsome [4] = assay: Drug formation in human liver microsomes treated with 1-(2-Chloro-2-phenylethyl)-3-(4-fluorophenyl)-1H-pyrazolo[3,4-d]pyrimidin-4-amine measured after 1 hr by LC-UV-MS analysis; format: ADME
# Liver microsome [5] = assay: Drug formation in human liver microsomes treated with 3-(4-Chlorophenyl)-1-(2-chloro-2-phenylethyl)-1H-pyrazolo[3,4-d]pyrimidin-4-amine measured after 1 hr by LC-UV-MS analysis; format: ADME
# [6] = target: Tyrosine-protein kinase Fyn (Homo sapiens, UniProt P06241); assay: Inhibition of human recombinant full-length Fyn using Src substrate peptide after 15 mins incubation by MicroBeta liquid scintillation counting analysis
# Sequence of Tyrosine-protein kinase Fyn (P06241 whole entry): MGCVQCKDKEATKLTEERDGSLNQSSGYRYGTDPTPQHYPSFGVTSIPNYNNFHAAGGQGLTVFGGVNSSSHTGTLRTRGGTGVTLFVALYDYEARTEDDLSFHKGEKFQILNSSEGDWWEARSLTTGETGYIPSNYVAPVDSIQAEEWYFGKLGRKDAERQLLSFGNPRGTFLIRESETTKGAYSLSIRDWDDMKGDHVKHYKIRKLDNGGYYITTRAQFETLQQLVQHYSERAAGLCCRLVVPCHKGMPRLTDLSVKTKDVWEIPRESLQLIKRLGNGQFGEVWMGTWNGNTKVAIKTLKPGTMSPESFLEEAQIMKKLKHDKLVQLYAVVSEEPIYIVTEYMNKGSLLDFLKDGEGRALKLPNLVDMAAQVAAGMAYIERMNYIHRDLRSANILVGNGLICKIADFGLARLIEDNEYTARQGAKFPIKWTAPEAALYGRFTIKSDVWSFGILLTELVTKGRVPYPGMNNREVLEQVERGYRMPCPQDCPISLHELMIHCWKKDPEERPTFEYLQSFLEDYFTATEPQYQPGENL
# [7] = Permeability of the compound by PAMPA-LC-UV analysis; format: physicochemical
# [8] = Permeability of the compound by BBB-PAMPA-LC-UV analysis; format: physicochemical
# [9] = Metabolic stability in human liver microsomes measured after 1 hr in presence of NADPH generating system; format: ADME; details: read-out: Stability
# [10] = Anticancer activity against human U87 cells assessed as cell growth inhibition after 20 to 70 hrs by Real-time RTCA iCELLgence system; format: functional, cell-based, U-87MG ATCC; details: U-87 MG
# [11] = Cytotoxicity against human fibroblast at 2 uM after 48 hrs; format: cell-based
# K562 [12] = assay: Antiproliferative activity against human K562 cells assessed as vitality after 72 hrs by automatic cell counting analysis; format: functional, cell-based; details: K562, 72 h
# K562 [13] = assay: Induction of apoptosis in human K562 cells assessed as accumulation of hypodiploid cells at 0.1 uM
# [14] = Induction of apoptosis in Ph+ CML patient CD34+ early hematopoietic progenitor cells assessed as increase in apoptotic level at 2 uM after 48 hrs by Annexin V-FITC/Propidium iodide staining based FACSCalibur flow cytometry; format: functional, Homo sapiens
# MDA-MB-231 = assay: Anticancer activity against human MDA-MB-231 cells assessed as cell growth inhibition after 20 to 70 hrs by Real-time RTCA iCELLgence system; format: functional, cell-based
smiles,measurement,setting,value
Nc1ncnc2c1c(-c1ccccc1)nn2CC(=O)c1ccccc1,Drug metabolism,Liver microsome [1],metabolite_detected
same,Drug metabolism,Liver microsome [2],metabolite_detected
same,Drug metabolism,Liver microsome [3],metabolite_detected
same,Drug metabolism,Liver microsome [4],metabolite_detected
same,Drug metabolism,Liver microsome [5],metabolite_detected
CCOc1ccc(-c2[nH]ncc2CN2CCN(S(=O)(=O)N3CCCC3)CC2)cc1,Ki,[6]; read-out: Ki,2.25 µM
CNc1nc(SC)nc2c1c(-c1ccccc1)nn2CCc1ccccc1,Ki,[6]; read-out: Ki,10 µM
COc1ccc(-c2nn(CC(Cl)c3ccccc3)c3ncnc(N)c23)cc1 (stereo not drawn),Papp,[7],17.5 ×10⁻⁶ cm/s
same,Papp,[8],14.5 ×10⁻⁶ cm/s
same,remaining at 1 h,[9],95.6%
Nc1ncnc2c1c(-c1ccc(O)cc1)nn2CC(Cl)c1ccccc1 (stereo not drawn),Drug metabolism,Liver microsome [1],metabolite_detected
Cc1ccc(-c2cc(-c3ccccc3)c3c(N)c(C(=O)Nc4ccc(F)cc4)sc3n2)cc1,Ki,[6],Not Active
COC(Cn1nc(-c2ccccc2)c2c(N)nc(SC)nc21)c1ccccc1 (stereo not drawn),Ki,[6]; read-out: Ki,10 µM
Cc1ccc(-c2nn(CC(Cl)c3ccccc3)c3ncnc(N)c23)cc1 (stereo not drawn),Papp,[7],10.9 ×10⁻⁶ cm/s
same,IC50,[10],0.78 µM
same,Activity,[11],Non-toxic
same,IC50,K562 [12],0.3 µM
same,Papp,[8],11.5 ×10⁻⁶ cm/s
same,Activity,K562 [13],50%
same,remaining at 1 h,[9],90%
same,Activity,[14],30%
same,IC50,MDA-MB-231,8.3 µM
Nc1ncnc2c1c(-c1ccc(F)cc1)nn2CC(Cl)c1ccccc1 (stereo not drawn),Papp,[7],16.5 ×10⁻⁶ cm/s
same,IC50,K562 [12],12.6 µM
same,Papp,[8],12.9 ×10⁻⁶ cm/s
same,remaining at 1 h,[9],95.7%
CCC(C)Sc1nc(NCc2ccccc2)c2cnn(CC(Cl)c3ccccc3)c2n1 (stereo not drawn),Ki,[6],Not Active
ClC(Cn1ncc2c(NCCc3ccccc3)nc(SC3CCCC3)nc21)c1ccccc1 (stereo not drawn),Ki,[6],Not Active
ClC(Cn1ncc2c(NCCc3ccccc3)nc(SCCN3CCOCC3)nc21)c1ccccc1 (stereo not drawn),Ki,[6],Not Active
CCc1ccc2[nH]c(=O)c(CN(Cc3ccc4c(c3)OCO4)C(=O)Nc3ccc(F)cc3)cc2c1,Ki,[6]; read-out: Ki,2.1 µM
Nc1ncnc2c1c(-c1ccc(Cl)cc1)nn2CC(Cl)c1ccccc1 (stereo not drawn),Papp,[7],9.9 ×10⁻⁶ cm/s
same,IC50,[10],0.074 µM
same,Activity,[11],Non-toxic
same,IC50,K562 [12],0.56 µM
same,Papp,[8],8.4 ×10⁻⁶ cm/s
same,remaining at 1 h,[9],85.2%
same,Activity,[14],35%
same,IC50,MDA-MB-231,3.7 µM
Fc1cccc(Nc2nc(SC3CCCC3)nc3c2cnn3CC(Cl)c2ccccc2)c1 (stereo not drawn),Ki,[6],Not Active
CCC(C)Sc1nc(NCCc2ccccc2)c2cnn(CC(Cl)c3ccccc3)c2n1 (stereo not drawn),Ki,[6],Not Active
CCCCSc1nc(NCCc2ccccc2)c2cnn(CC(Cl)c3ccccc3)c2n1 (stereo not drawn),Ki,[6],Not Active
CC(Cn1nc(-c2ccc(Cl)cc2)c2c(N)ncnc21)c1ccccc1 (stereo not drawn),Ki,[6]; read-out: Ki,0.78 µM
Nc1ncnc2c1c(-c1ccccc1)nn2CC(Cl)c1ccccc1 (stereo not drawn),Papp,[7],12.8 ×10⁻⁶ cm/s
same,Papp,[8],9.5 ×10⁻⁶ cm/s
same,Ki,[6]; read-out: Ki,0.9 µM
same,remaining at 1 h,[9],78.9%
Nc1ncnc2c1c(-c1ccccc1)nn2CC(O)c1ccccc1 (stereo not drawn),Drug metabolism,Liver microsome [1],metabolite_detected
same,Drug metabolism,Liver microsome [2],metabolite_detected
same,Drug metabolism,Liver microsome [3],metabolite_detected
same,Drug metabolism,Liver microsome [4],metabolite_detected
same,Drug metabolism,Liver microsome [5],metabolite_detected
Clc1cccc(Nc2nc(SC3CCCC3)nc3c2cnn3CC(Cl)c2ccccc2)c1 (stereo not drawn),Ki,[6],Not Active
CC(=O)c1ccc(-c2nn(CC(C)c3ccccc3)c3ncnc(N)c23)cc1 (stereo not drawn),Ki,[6]; read-out: Ki,10 µM
